The supplement of paper PMC5579334
± gives the standard deviation of the averaged measurements.

Columns and labels:
[1] = tested on: HSC1 (primary human Schwann cells); assay: drug sensitivity score (DSS, CellTiter-Glo viability, 72 h) (DSS (dimensionless)); higher = more sensitive; extreme values may be limits of the assay
Summary of the method: (§1)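 MPNST cell lines and primary human Schwann cells were seeded at 750–1000 cells per well into 384-well plates preprinted with each compound at five concentrations in 10-fold steps, then incubated 72 h at 37 °C, 5% CO2. CellTiter-Glo ATP luminescence gave viability, scaled between vehicle and positive-control wells, with duplicates averaged where present. Curves were fitted with a four-parameter logistic model. Percent inhibition refers to the top concentration, while drug sensitivity score and relative IC50, censored at the top concentration, come from these fits.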

[2] = tested on: HSC2 (primary human Schwann cells); assay: as above
Summary of the method: as §1

[3] = tested on: ST8814; assay: as above
Summary of the method: as §1

[4] = tested on: S462; assay: as above
Summary of the method: as §1

[5] = tested on: STS26T; assay: as above
Summary of the method: as §1

[6] = tested on: HS-PSS; assay: as above
Summary of the method: as §1

[7] = tested on: HS-Sch-2; assay: as above
Summary of the method: as §1

[8] = tested on: YST-1; assay: as above
Summary of the method: as §1

[9] = tested on: S1507-2; assay: as above
Summary of the method: as §1

[10] = tested on: HSC1 (primary human Schwann cells); assay: % inhibition of CellTiter-Glo viability at highest tested concentration (72 h), relative to DMSO and benzethonium chloride controls; higher = more inhibition
Summary of the method: as §1

[11] = tested on: HSC2 (primary human Schwann cells); assay: as above
Summary of the method: as §1

[12] = tested on: ST8814; assay: as above
Summary of the method: as §1

[13] = tested on: S462; assay: as above
Summary of the method: as §1

[14] = tested on: STS26T; assay: as above
Summary of the method: as §1

[15] = tested on: HS-PSS; assay: as above
Summary of the method: as §1

[16] = tested on: HS-Sch-2; assay: as above
Summary of the method: as §1

[17] = tested on: YST-1; assay: as above
Summary of the method: as §1

[18] = tested on: S1507-2; assay: as above
Summary of the method: as §1

[19] = tested on: HSC1 (primary human Schwann cells); assay: drug sensitivity score (DSS, CellTox-Green cytotoxicity, 72 h) (DSS (dimensionless)); higher = more cytotoxic; extreme values may be limits of the assay
Summary of the method: (§2)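 For 72 h at 37 °C, MPNST cell lines and primary human Schwann cells were exposed in 384-well plates to five 10-fold compound dilutions. CellTox-Green, added before seeding at a final 1:1000 dilution, gave fluorescence from DNA released by disrupted cells. Signals were scaled to vehicle and positive-control wells, cultures failing plate quality control were left out, and four-parameter logistic fits were applied. Relative IC50 and drug sensitivity score were derived from the fits, with IC50 censored at the top concentration.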

[20] = tested on: HSC2 (primary human Schwann cells); assay: as above
Summary of the method: as §2

[21] = tested on: ST8814; assay: as above
Summary of the method: as §2

[22] = tested on: STS26T; assay: as above
Summary of the method: as §2

[23] = tested on: HS-PSS; assay: as above
Summary of the method: as §2

[24] = tested on: S1507-2; assay: as above
Summary of the method: as §2

Structure (SMILES) | drug sensitivity score [1] | drug sensitivity score [2] | drug sensitivity score [3] | drug sensitivity score [4] | drug sensitivity score [5] | drug sensitivity score [6] | drug sensitivity score [7] | drug sensitivity score [8] | drug sensitivity score [9] | % inhibition [10] [%] | % inhibition [11] [%] | % inhibition [12] [%] | % inhibition [13] [%] | % inhibition [14] [%] | % inhibition [15] [%] | % inhibition [16] [%] | % inhibition [17] [%] | % inhibition [18] [%] | drug sensitivity score [19] | drug sensitivity score [20] | drug sensitivity score [21] | drug sensitivity score [22] | drug sensitivity score [23] | drug sensitivity score [24]
CO[C@H](C(=O)[C@@H](O)[C@@H](C)O)[C@@H]1Cc2cc3cc(O[C@H]4C[C@@H](O[C@H]5C[C@@H](O)[C@H](O)[C@@H](C)O5)[C@@H](O)[C@@H](C)O4)c(C)c(O)c3c(O)c2C(=O)[C@H]1O[C@H]1C[C@@H](O[C@H]2C[C@@H](O[C@H]3C[C@](C)(O)[C@H](O)[C@@H](C)O3)[C@H](O)[C@@H](C)O2)[C@H](O)[C@@H](C)O1 [Plicamycin] (max concentration tested 10000 nM) | 24.4 | 24.6 | 25.7 | 24.32 ± 0.091 | 27 | 9.51 | 12.5 | 14.8 | 22.5 ± 0.9 | 83.7 | 87 | 82.8 | 97.26 ± 0.26 | 95.8 | 96.8 | 102 | 101 | 87 ± 2.5 | 10.6 | 12.6 | 0 | 25.9 | 2.63 | 10.4 ± 4.4
Cc1c(N)nc([C@H](CC(N)=O)NC[C@H](N)C(N)=O)nc1C(=O)N[C@H](C(=O)N[C@H](C)[C@@H](O)[C@H](C)C(=O)N[C@H](C(=O)NCCc1nc(-c2nc(C(=O)NCCC[S+](C)C)cs2)cs1)[C@@H](C)O)[C@@H](O[C@@H]1O[C@@H](CO)[C@@H](O)[C@H](O)[C@@H]1O[C@H]1O[C@H](CO)[C@@H](O)[C@H](OC(N)=O)[C@@H]1O)c1c[nH]cn1 [Bleomycin] (max concentration tested 10000 nM) | 6.33 | 8.81 | 4.1 | 5 ± 1.1 | 5.46 | 5.94 | 8.47 | 10.9 | 2.36 ± 0.43 | 50.4 | 54.5 | 46.4 | 68.4 ± 1.7 | 62.1 | 53.2 | 72.1 | 79.5 | 29.9 ± 7.5 | 0 | 1.66 | 2.35 | 4.43 | 0.34 | 1.29 ± 0.61
O=[N+]([O-])c1ccc2c(c1)S(=O)(=O)C=C2 [Stattic] (max concentration tested 50000 nM) | 16.8 | 13.9 | 14.9 | 11.3 ± 3.2 | 13.7 | 18.7 | 18.6 | 17.4 | 7.88 ± 2.4 | 98.5 | 98.3 | 94.6 | 96.03 ± 0.43 | 95.6 | 101 | 100 | 101 | 95.7 ± 1.3 | 15.6 | 9.26 | 7.96 | 12 | 12.8 | 5.93 ± 1.3
O=c1[nH]cc(F)c(=O)[nH]1 [Fluorouracil] (max concentration tested 10000 nM) | 1.94 | 2.86 | 0 | 0.808 ± 0.45 | 6.56 | 1.09 | 1.83 | 0.94 | 0.493 ± 0.7 | 43.5 | 55.5 | 4.62 | 27.2 ± 7 | 53.4 | 29.4 | 35 | 25.5 | 11 ± 7.6 | 0 | 0 | 0 | 0 | 0 | 0
CCC1=C[C@@H]2CN(C1)Cc1c([nH]c3ccccc13)[C@@](C(=O)OC)(c1cc3c(cc1OC)N(C)[C@H]1[C@@](O)(C(=O)OC)[C@H](OC(C)=O)[C@]4(CC)C=CCN5CC[C@]31[C@@H]54)C2 [Vinorelbine] (max concentration tested 10000 nM) | 16.7 | 20.8 | 20.6 | 30.2 ± 0.41 | 31.9 | 24.6 | 40.6 | 40.2 | 19.1 ± 0.81 | 78.9 | 88.8 | 94.7 | 99.19 ± 0.43 | 94.5 | 80.5 | 98.5 | 94.3 | 80.4 ± 4.8 | 12.5 | 13.5 | 19.7 | 34.4 | 2.69 | 19.2 ± 3.6
O=C1NC(=O)[C@@H](c2cn3c4c(cccc24)CCC3)[C@@H]1c1c[nH]c2ccccc12 [Tivantinib] (max concentration tested 1000 nM) | 3.89 | 4.03 | 5 | 5.15 ± 0.31 | 6.92 | 2.27 | 6 | 6.48 | 5.33 ± 1.5 | 62.9 | 60.3 | 93 | 98.43 ± 0.21 | 98.2 | 36.1 | 82.9 | 78.2 | 80 ± 5.9 | 1.43 | 2.53 | 4.59 | 7.73 | 0.01 | 4.49 ± 1.2
O=C(O)CNC(=O)c1c(O)c2ccccc2n(Cc2ccccc2)c1=O [IOX-2] (max concentration tested 50000 nM) | 0 | 1.03 | 2.35 | 0.3 ± 0.38 | 0.326 | 5.08 | 6.06 | 0.01 | 1.81 ± 1.5 | 9.77 | 20.2 | 30.5 | 12.2 ± 1.9 | 16.4 | 65 | 89 | 12 | 26.3 ± 12 | 0 | 0 | 0.888 | 0 | 0 | 0
CC(C)(C#N)c1cc(Cn2cncn2)cc(C(C)(C)C#N)c1 [Anastrozole] (max concentration tested 10000 nM) | 0 | 0 | 0 | 0 | 0 | 0 | 0 | 0 | 0 | -2.19 | -11 | -7.93 | -13.3 ± 6.7 | -1.93 | -11.6 | -11.4 | 6.26 | -9.3 ± 9.7 | 0 | 0 | 0 | 0 | 0 | 0
Nc1nc(NC2CC2)cc(-c2cccc(Cl)c2Cl)n1 [TH588] (max concentration tested 25000 nM) | 4.07 | 5.92 | 9.42 | 6.18 | 9.6 | 3.03 | 7.91 | 7.77 | 6.86 | 55 | 67 | 100 | 98.2 | 102 | 35.1 | 87.8 | 79.4 | 78.2 | 4.29 | 4.06 | 7.43 | 9.84 | 0 | 5.61
O=P1(N(CCCl)CCCl)NCCCO1 (stereo not drawn) [Cyclophosphamide] (max concentration tested 40000 nM) | 0 | 0 | 0 | 0 | 0 | 0 | 0 | 0 | 0 | 8.38 | -1.29 | -3.77 | -8.093 ± 0.056 | -1.7 | -15 | -7.77 | 3.85 | -7.33 ± 17 | 0 | 0 | 0 | 0 | 0 | 2.5 ± 3.5
Nc1ncn([C@@H]2O[C@H](CO)[C@@H](O)[C@H]2O)c(=O)n1 [Azacitidine] (max concentration tested 10000 nM) | 5.39 | 3.59 | 0.0452 | 2.02 ± 0.98 | 1.02 | 0.1 | 0 | 0.39 | 0 | 75.2 | 68.2 | 12.4 | 34.5 ± 9.2 | 29.9 | 15.6 | 10.9 | 22.1 | 3.07 ± 2.9 | 0 | 0 | 0 | 0 | 0 | 2.61 ± 3.7
CC(O)(CS(=O)(=O)c1ccc(F)cc1)C(=O)Nc1ccc(C#N)c(C(F)(F)F)c1 (stereo not drawn) [Bicalutamide] (max concentration tested 10000 nM) | 0.0562 | 0 | 0 | 0.149 ± 0.21 | 0.0466 | 0.45 | 0.01 | 0 | 0 | 11.9 | -3.88 | 7.2 | 7.3 ± 7.9 | 12 | 14.1 | 12.8 | -3.03 | 0.808 ± 0.64 | 0 | 0 | 0 | 0 | 0 | 0
